Structures are written as SMILES. In brackets after ≈: the same amount, converted by molar mass. Activity calls are given as the source filed them. No cut-off for these calls is given here.

The nature of series [1]: Aqueous solubility of the compound in DMSO/phosphate buffered saline at pH7.4 by chemiluminescent nitrogen detection method. Type of series: physicochemical. As to conditions: pH 7.4.
Series [2] in a line: Permeability of the compound across artificial lipid membrane. The series is classed as ADME. The conditions noted are these: not told; read-out: permeability.
The target of series [3] is Bromodomain-containing protein 4 (Homo sapiens, UniProt O60885, Y390A). Kind of series: Binding affinity to 6His-tagged-BRD4 BD1 Y390A mutant (1 to 477 aa) (unknown origin) by TR-FRET competitive assay.
In series [4] the target is Bromodomain-containing protein 4 (Homo sapiens) (UniProt O60885). Kind of series: Binding affinity to His-tagged-BRD4 BD1 (1 to 477 aa) (unknown origin) by STD-NMR analysis.
For series [5] the target is unchanged. Kind of series: Binding affinity to His-tagged-BRD4 BD1 (1 to 477 aa) (unknown origin) by STD-NMR analysis in presence of GW841819.

In turn, `COc1ccccc1C(=O)Nc1cc2c(cc1N1CCCCC1)n(C)c(=O)n2C` had a solubility (kinetic) in series [1] of 25 µM (≈ 9.86 µg/mL). In addition, the Papp in series [2] was determined as 35 ×10⁻⁶ cm/s. Compound `COc1ccccc1C(=O)Nc1ccc2c(c1)n(C)c(=O)n2C` had an IC50 in series [3] of more than 50.1 µM. As for `Cn1c(=O)n(C)c2cc(C(N)=O)ccc21`, the IC50 in series [3] is 79.4 µM. Also, the outcome in series [4] was Active. Further, the outcome in series [5] was inactive. With `COc1cccc(C(=O)Nc2ccc3c(c2)n(C)c(=O)n3C)c1`, the IC50 in series [3] was 15.8 µM. Still for that read-out and setting: the result for `Cc1ccc(S(=O)(=O)Nc2ccc3c(c2)n(C)c(=O)n3C)c(C)c1` reads 2.51 µM; that for `COc1cccc(C(=O)Nc2cc3c(cc2C)n(C)c(=O)n3C)c1`, more than 50.1 µM.

Values taken from ChEMBL document CHEMBL3352488, “1,3-Dimethyl Benzimidazolones Are Potent, Selective Inhibitors of the BRPF1 Bromodomain” (ACS Med Chem Lett, 2014).
